6 compounds from US4599325A, “Substituted tyrosyl alanine dipeptide amides” (G. D. Searle & Co., priority 1985, dated 1986) can be followed below.

The target of test [1] is opiate receptors. Put plainly: Opiate binding assay (displacement of 3H-Naloxone). On the set-up: species or system rat. Particulars: Table 1, 3H-Naloxone, rat brain membranes. On the procedure:
The test compounds were evaluated for their ability to displace the binding of ^3 H-Naloxone to opiate receptors isolate from rat brain. Male rats [COBS CD(SD)BR] obtained from Charles River Laboratories (Portage, MI) were sacrificed by cervical dislocation. A purified homogenate of receptor membranes was prepared from the brains according to the method described by Chang and Cuatrecasas. (K.-J. Chang and P. Cuatrecases. Multiple Opiate Receptors: Enkephalins And Morphine Bind To Receptors Of Different Specificity. J. Biol. Chem. 254, 2610-2618 (1979).) The brains were homogenized in 10 volumes of 0.32M sucrose and centrifuged twice at 6,000×g for 15 minutes. Following centrifugation of the supernatants at 40,000×g for 30 minutes, the pellets were allowed to swell, then centrifuged at 6,000 and 40,000×g. This process was repeated. The final pellet was resuspended in 2 volumes of 50 mM tris HCl (pH 7.4). The homogenate was assayed for protein content according to the method of Itzhaki and Gill. R. F. Itzhaki and D. M. Gill. A Micro-Biuret Method for Estimating Proteins. Anal. Biochem. 9, […] (1964).
The binding of the test compounds to the receptor membrane preparation was measured using a modification of the method of Pert and Snyder. C. B. Pert and S. H. Snyder. Properties of Opiate-Receptor Binding in Rat Brain. Proc. Natl. Acad. Sci. 70, 2243-2247 (1973). The receptor assay was run using 1 nM ^3 H-Naloxone and 2 ml of tissue homogenate (0.5 mg/ml protein concentration). Levorphanol (1×10^-5 M) was used as the displacer for non-specific binding. Both the displacer and the test compounds were added in 0.02 ml volumes. The assay was run in 0.05M tris HCl (pH 7.4) ±100 mM NaCl. Total assay volume was 2.03 ml.
Samples were incubated at 25° C. for 60 min., cooled on ice 5 min. and subsequently filtered over Whatman GF/C glass fiber filters with 2.4 ml washes of cold buffer. The filters were then solubilized in 1 ml of NCS at 50° C. for 1 hour. After solubilization, the pH was adjusted with 0.1 ml of glacial acetic acid, 10 ml of PCS was added and the samples were counted in a Nuclear Chicago Mark II liquid scintillation counter. This method was used for the following test compounds: Example 4, Example 5, Example 27, Example 28, Example 38, Example 39, and the prior art compound (4).
A modification of this method was used for the following test compounds: Example 16, Example 17, Example 21, Example 22, Example 24, Example 30, Example 31. In this modification, the total assay volume was adjusted to 1.0 ml. Samples were cooled on ice for 10 minutes and dried at 50° C. for 30 minutes, then 10 mls of PCS was added and the samples counted in a liquid scinitillation counter.
The IC50 values, the concentration of the test compounds which inhibited ^3 H-Naloxone specific binding to the opiate receptor by 50%, were obtained from log-probit plots of concentration-response curves. D. J. Finney. Probit Analysis. Cambridge University Press, London, 1947.
In general terms: In a radioligand displacement assay an active substance lowers the binding of a labelled ligand.

The test system of test [2] is mice. The test can be described thus: Writhing assay (phenylbenzoquinone). The format is in vivo, mouse. Further details: key to Writhing Mouse Subc., effect of the screening dose / Writhing Mouse Oral, effect of the screening dose: Active: The test compound was rated active if writhing was inhibited (as described) in 5 of 10 mice. To be noted: Table 1; for Writhing Mouse Oral, effect of the screening dose: screening dose 10 mg/kg p.o.; for Writhing Mouse Subc., effect of the screening dose: screening dose 10 mg/kg s.c. On the procedure:
Male Charles River albino mice (CD-1/HAM/1LR) weighing between 20 and 30 grams were used. Thirty minutes after subcutaneous or intragastric administration of the test compound (0.1 ml/10 gram body weight), 0.025% (w/v) phenylbenzoquinone was injected intraperitoneally (0.1 ml/10 gram body weight). Five minutes later, each mouse was placed in a large glass beaker and the number of writhes that occurred in the subsequent ten minutes is counted. A writhe consisted of dorsoflexion of the back, extension of the hindlimbs, and strong contraction of the abdominal musculature. The test compound was considered to have produced analgesia in a mouse if the number of writhes elicited by phenylbenzoquinone was equal to or less than one-half the median number of writhes recorded for the saline-treated group that day. The results were expressed as the number of mice (out of a possible ten) in which the test compound produced analgesia. The test compound was rated active if writhing was inhibited (as described) in 5 of 10 mice.
The receptor binding and biological properties of the following compounds of this invention are illustrated in Tables 1 and 2 utilizing the previously described opiate binding, hot plate, tail flick, writhing assay, cholera test or hypertensive test. The standard screening dose for the hot plate test of Table 1 was 10 mg/kg i.v. and for the writhing assay was 10 mg/kg s.c. and p.o.
(In general: Writhing tests count abdominal constrictions after an irritant is injected.)

Test [3] has as its system spontaneous hypertensive rats (SHR). Put plainly: Hypertensive test in spontaneous hypertensive rats (SHR). It is filed as in vivo, rat. Further details: key to Antihypertensive Properties, Result: Active: Any compound that resulted in a decrease in arterial blood pressure of 20 mm Hg or greater was considered active. To be noted: Table 3; 10 mg/kg intravenously, one unanesthetized male SHR. On the procedure:
A compound's ability to act as an antihypertensive agent was determined using spontaneous hypertensive rats (SHR). Male SHR were maintained in-house for 1 or more weeks before use and were between 11 and 16 weeks old. The test compound was administered intravenously and the initial mean arterial blood pressure was measured directly via an arterial catheter implanted immediately before administration of the compound. Blood pressure readings were made 5, 10 and 15 minutes after administration of the compound. […] Statistical comparisons were made using the unpaired student's test.
The following compounds of the invention were evaluated for their antihypertensive properties using the spontaneous hypertensive rat (SHR). […] The SHR test was essentially that described earlier. Each compound listed in Table 3, was administered intravenously to one unanesthetized, male, spontaneously hypertensive rat; the dosage was 10 mg/kg.

In test [1], “2,6-dimethyltyrosyl-N-(3-cyclohexylpropyl)-D-alaninamide, (2-methylpropyl)carbonate (ester) [Example 27]” had an IC50 of 0.0027 µM. Moreover, in test [2], the “Writhing Mouse Oral, effect of the screening dose” value (shortened to “Writhing Mouse Oral, effect”) is “Active” and the “Writhing Mouse Subc., effect of the screening dose” value (from here on “Writhing Mouse Subc., effect”) is listed as “Active”.
Take “2,6-dimethyltyrosyl-N-(4-phenylbutyl)-D-alaninamide, hydrochloride [Example 43]”: in test [2], the “Writhing Mouse Oral, effect” value is on record as “Active” and the “Writhing Mouse Subc., effect” value is “Active”.
“2,6-dimethyltyrosyl-N-[3-(2,6-dimethylphenyl)propyl]-D-alaninamide hydrochloride [Example 38]” returned an IC50 in test [1] of 0.16 µM. Also, in test [2], the “Writhing Mouse Oral, effect” value is listed as “Active” and the “Writhing Mouse Subc., effect” value is reported as “Active”.
On to “2,6-dimethyltyrosyl-N-[3-(2,6-dimethylphenyl)propyl]-D-alaninamide, hydrochloride [Example 39]”, for which the 50% inhibitory concentration (IC50) in test [1] is 0.0005 µM. For the same compound, in test [2], the “Writhing Mouse Oral, effect” value is given as “Active” and the “Writhing Mouse Subc., effect” value is reported as “Active”.
For the compound “2-methyltyrosyl-N-(3-phenylpropyl)-D-alaninamide, hydrochloride [Example 16]”, the “Antihypertensive Properties, Result” value in test [3] is “Active”.
For `Cc1cc(O)cc(C)c1C[C@H](N)C(=O)N[C@H](C)C(=O)NCCCc1ccccc1.Cl` [Example 4, 2,6-dimethyltyrosyl-N-(3-phenylpropyl)-D-alaninamide hydrochloride], the half-inhibitory concentration (IC50) in test [1] (hydrochloride) was determined as 0.05 µM. In addition, in test [2] (Mus musculus, sc, subcutaneous, read-out: Writhing Mouse Subc. (ED50)), the 50% effective dose (ED50) was 0.58 mg/kg. The “Writhing Mouse Oral (ED50)” value in test [2] (oral, hydrochloride) is 2.39 mg/kg. Also, the “Antihypertensive Properties, Result” value in test [3] is “Active”.

As usually defined, the IC50 is the concentration at which inhibition is half-maximal. The term ED50 denotes the dose at which the effect has come halfway, by size or by number of responders.
